Experimental data taken from US4704405A (priority 1986, dated 1987).
Values belong to the compound of their own block, whether it stands above or below them.

Experiments:
[1] = cited from earlier work; for bioavailability of the drug: tromethamine or sodium salts, British Pat. No. 2,059,768, German Pat. No. 134,672
[2] = in vivo

Compound: CC(=O)Oc1ccccc1C(=O)O [aspirin]
bioavailability of the drug [1]: enhanced bioavailability

Compound: COc1ccc2c(c1)c(CC(=O)O)c(C)n2C(=O)c1ccc(Cl)cc1 [indomethacin]
bioavailability of the drug [1]: enhanced bioavailability

absorption of sulindac [2]: Extremely rapid absorption
Compound: CC1=C(CC(=O)O)c2cc(F)ccc2/C1=C\c1ccc([S+](C)[O-])cc1 (centres unmarked) [sodium sulindac]

Compound: CC1=C(CC(=O)O)c2cc(F)ccc2C1=Cc1ccc([S+](C)[O-])cc1 (centres unmarked) [sulindac]
duration of action ([1]; NSAID, reduction-oxidation prodrug): long duration of action
onset of activity ([1]; sulindac, commercialized as CLINORIL): slow onset of activity
